system: PBMCs infected with VSV-G pseudotyped HIV virus (VSV-G/pNLG1-P2A-ΔEnv); test: cells; format: cell-based, human; conditions: Homo sapiens, PBMC, read-out: TACK EC50

Going from `COc1cn(Cc2cc3c(cc2F)[C@@](C#CC2CC2)(C(C)(F)F)NC(=O)N3)nc1N` [Example 99, (S)-7-((3-amino-4-methoxy-1H-pyrazol-1-yl)methyl)-4-(cyclopropylethynyl)-4-(1,1-difluoroethyl)-6-fluoro-3,4-dihydroquinazolin-2(1H)-one] to `COc1nn(Cc2cc3c(cc2F)[C@@](C#CC2CC2)(C(C)(F)F)NC(=O)N3)cc1F` [Example 115, (S)-4-(cyclopropylethynyl)-4-(1,1-difluoroethyl)-6-fluoro-7-((4-fluoro-3-methoxy-1H-pyrazol-1-yl)methyl)-3,4-dihydroquinazolin-2(1H)-one], the EC50 rises from 13.1 nM to 19.8 nM (1.5-fold). The first is the more potent here.

`NC(=O)c1nccn1Cc1cc2c(cc1F)[C@@](C#CC1CC1)(C(F)(F)F)NC(=O)N2` [Example 100, (S)-1-((4-(cyclopropylethynyl)-6-fluoro-2-oxo-4-(trifluoromethyl)-1,2,3,4-tetrahydroquinazolin-7-yl)methyl)-1H-imidazole-2-carboxamide] and `Cc1ccn(Cc2cc3c(cc2F)[C@@](C#CC2CC2)(C(F)(F)F)NC(=O)N3)n1` [Example 101, (S)-4-(cyclopropylethynyl)-6-fluoro-7-((3-methyl-1H-pyrazol-1-yl)methyl)-4-(trifluoromethyl)-3,4-dihydroquinazolin-2(1H)-one] are within 1.5-fold of each other in EC50: 13.6 nM for the first, 13.8 nM for the second.

Going from `CC(F)(F)[C@@]1(C#CC2CC2)NC(=O)Nc2cc(Cn3ccc(C=O)n3)c(F)cc21` [Example 102, (S)-1-((4-(cyclopropylethynyl)-4-(1,1-difluoroethyl)-6-fluoro-2-oxo-1,2,3,4-tetrahydroquinazolin-7-yl)methyl)-1H-pyrazole-3-carbaldehyde] to `CC(F)(F)[C@@]1(C#CC2CC2)NC(=O)Nc2cc(Cn3cnc(N)n3)c(F)cc21` [Example 106, (S)-7-((3-amino-1H-1,2,4-triazol-1-yl)methyl)-4-(cyclopropylethynyl)-4-(1,1-difluoroethyl)-6-fluoro-3,4-dihydroquinazolin-2(1H)-one], the EC50 falls from 26.8 nM to 16.8 nM (1.6-fold). The second is the more potent here.

Going from `Cc1nn(C)c(=O)n1Cc1cc2c(cc1F)[C@@](C#CC1CC1)(C(C)(F)F)NC(=O)N2` [Example 108, (S)-4-(cyclopropylethynyl)-4-(1,1-difluoroethyl)-7-((1,3-dimethyl-5-oxo-1,5-dihydro-4H-1,2,4-triazol-4-yl)methyl)-6-fluoro-3,4-dihydroquinazolin-2(1H)-one] to `CN1CC(=O)N(Cc2cc3c(cc2F)[C@@](C#CC2CC2)(C(C)(F)F)NC(=O)N3)C1=O` [Example 110, (S)-3-((4-(cyclopropylethynyl)-4-(1,1-difluoroethyl)-6-fluoro-2-oxo-1,2,3,4-tetrahydroquinazolin-7-yl)methyl)-1-methylimidazolidine-2,4-dione], the EC50 rises from 18.3 nM to 43.9 nM (2.4-fold).

Going from `CC(F)(F)[C@@]1(C#CC2CC2)NC(=O)Nc2cc(Cn3nc[nH]c3=O)c(F)cc21` [Example 109, (S)-4-(cyclopropylethynyl)-4-(1,1-difluoroethyl)-6-fluoro-7-((5-oxo-4,5-dihydro-1H-1,2,4-triazol-1-yl)methyl)-3,4-dihydroquinazolin-2(1H)-one] to `CN(Cc1cc2c(cc1F)[C@@](C#CC1CC1)(C(C)(F)F)NC(=O)N2)c1cc[nH]n1` [Example 111, (S)-4-(cyclopropylethynyl)-4-(1,1-difluoroethyl)-6-fluoro-7-((methyl(1H-pyrazol-3-yl)amino)methyl)-3,4-dihydroquinazolin-2(1H)-one], the EC50 rises from 20.9 nM to 103 nM (4.9-fold).

Compared with `COCc1ccn(Cc2cc3c(cc2F)[C@@](C#CC2CC2)(C(C)(F)F)N(C)C(=O)N3)n1` [Example 112, (S)-4-(cyclopropylethynyl)-4-(1,1-difluoroethyl)-6-fluoro-7-((3-(methoxymethyl)-1H-pyrazol-1-yl)methyl)-3-methyl-3,4-dihydroquinazolin-2(1H)-one], `Cc1nnn(Cc2cc3c(cc2F)[C@@](C#CC2CC2)(C(F)(F)F)NC(=O)N3)n1` [Example 118, (S)-4-(cyclopropylethynyl)-6-fluoro-7-((5-methyl-2H-tetrazol-2-yl)methyl)-4-(trifluoromethyl)-3,4-dihydroquinazolin-2(1H)-one] is 2-fold higher in EC50: 18.1 nM for the first, 36.4 nM for the second.
